Compound: CC1(COc2ccc3c(c2)ncn3-c2ccc3cccc(N4CCC(N)CC4)c3n2)COC1 [Crenolanib] + CC(=O)c1c(C)c2cnc(Nc3ccc(N4CCNCC4)cn3)nc2n(C2CCCC2)c1=O [Palbociclib] (partner 0.5 µM)
Experiment: relative viability (nuclei count vs DMSO), 5 days (fraction); higher = more cells survive
Settings: first compound 1 µM
How it was run: (§1)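 Lung cancer cell lines were pin-tool dosed in 1536-well plates on the day after seeding, with either a lone drug or a fixed anchor-drug dose plus five library-drug doses (not always all listed) in √10 steps. Nuclei were counted on 4× images after 5 days. Relative viability is the ratio of treated-well to vehicle-well nuclei counts, with each value a median of duplicate plates.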

Going from HCC-827 to NCI-H441, the relative viability falls from 0.507 to 0.242.

First: LOU-NH91
Second: NCI-H2023
The relative viability of the first is higher: 0.548 for the first, 0.335 for the second.

Compared with A-427, NCI-H460 is lower in relative viability: 0.51 for the first, 0.145 for the second.

First: NCI-H727
Second: NCI-H1755
The relative viability of the first is higher: 0.699 for the first, 0.473 for the second.

Going from NCI-H520 to NCI-H2405, the relative viability rises from 0.309 to 0.539.

Compared with SW 1573, NCI-H1395 is higher in relative viability: 0.42 for the first, 0.628 for the second.

Going from 201T to NCI-H1975, the relative viability rises from 0.337 to 0.555.

HOP-62 and NCI-H2347 are the same in relative viability: 0.481 for the first, 0.481 for the second.

NCI-H1355 showed a relative viability of 0.351.

Compound: O=C1NC(=O)[C@@H](c2cn3c4c(cccc24)CCC3)[C@@H]1c1c[nH]c2ccccc12 [Tivantinib] + N=C(N)NC(=N)NCCc1ccccc1 [Phenformin] (partner 250 µM)
Experiment: as above
Settings: first compound 0.01 µM
How it was run: as §1

Going from NCI-H647 to LK-2, the relative viability falls from 0.583 to 0.44.

Going from NCI-H2126 to NCI-H2342, the relative viability rises from 0.527 to 0.579.

First: SK-MES-1
Second: HARA
The relative viability of the first is higher: 0.676 for the first, 0.418 for the second.

Going from COR-L23 to COR-L 105, the relative viability rises from 0.453 to 0.523.

Going from LC-2-ad to LU99A, the relative viability rises from 0.563 to 0.852.

Going from ChaGo-K-1 to NCI-H2170, the relative viability falls from 0.586 to 0.429.

Compared with NCI-H3122, HCC-78 is higher in relative viability: 0.369 for the first, 0.682 for the second.

Going from SW 900 to LXF-289, the relative viability falls from 0.693 to 0.536.

Compared with BEN, HCC-15 is higher in relative viability: 0.29 for the first, 0.476 for the second.

Going from HCC-827 to NCI-H441, the relative viability rises from 0.338 to 0.872.

Compared with LOU-NH91, NCI-H2023 is lower in relative viability: 0.689 for the first, 0.484 for the second.

Compared with A-427, NCI-H460 is higher in relative viability: 0.378 for the first, 0.532 for the second.

Compared with NCI-H727, NCI-H1755 is lower in relative viability: 0.636 for the first, 0.591 for the second.

First: NCI-H520
Second: NCI-H2405
The relative viability of the first is higher: 0.669 for the first, 0.437 for the second.

Compared with SW 1573, NCI-H1395 is higher in relative viability: 0.419 for the first, 0.468 for the second.

Going from 201T to NCI-H1975, the relative viability falls from 0.421 to 0.398.

Going from HOP-62 to NCI-H2347, the relative viability falls from 0.708 to 0.514.

With NCI-H1355 the relative viability was 0.474.

Same assay, conditions: first compound 0.03162 µM

Compared with NCI-H647, NCI-H2126 is higher in relative viability: 0.476 for the first, 0.504 for the second.

Compared with NCI-H2342, SK-MES-1 is higher in relative viability: 0.671 for the first, 0.672 for the second.

Going from HARA to COR-L23, the relative viability falls from 0.417 to 0.416.

First: COR-L 105
Second: LC-2-ad
The relative viability of the first is lower: 0.366 for the first, 0.491 for the second.

Going from LU99A to ChaGo-K-1, the relative viability falls from 0.805 to 0.442.

First: NCI-H2170
Second: NCI-H3122
The relative viability of the first is higher: 0.437 for the first, 0.394 for the second.

Compared with HCC-78, SW 900 is lower in relative viability: 0.711 for the first, 0.527 for the second.

First: LXF-289
Second: BEN
The relative viability of the first is higher: 0.542 for the first, 0.258 for the second.

Compared with HCC-15, HCC-827 is higher in relative viability: 0.411 for the first, 0.466 for the second.

Compared with NCI-H441, LOU-NH91 is lower in relative viability: 0.84 for the first, 0.715 for the second.

Compared with NCI-H2023, A-427 is lower in relative viability: 0.41 for the first, 0.391 for the second.

First: NCI-H460
Second: NCI-H727
The relative viability of the first is higher: 0.509 for the first, 0.409 for the second.

Going from NCI-H1755 to NCI-H520, the relative viability falls from 0.591 to 0.393.

Compared with NCI-H2405, SW 1573 is lower in relative viability: 0.38 for the first, 0.357 for the second.

Going from NCI-H1395 to 201T, the relative viability falls from 0.513 to 0.458.

Compared with NCI-H1975, HOP-62 is higher in relative viability: 0.421 for the first, 0.524 for the second.

Compared with NCI-H2347, NCI-H1355 is higher in relative viability: 0.375 for the first, 0.475 for the second.

Same assay, conditions: first compound 0.1 µM

First: NCI-H647
Second: LK-2
The relative viability of the first is higher: 0.437 for the first, 0.314 for the second.

First: NCI-H2126
Second: NCI-H2342
The relative viability of the first is lower: 0.532 for the first, 0.568 for the second.

Going from SK-MES-1 to HARA, the relative viability falls from 0.619 to 0.416.

Compared with COR-L23, COR-L 105 is lower in relative viability: 0.415 for the first, 0.401 for the second.

Going from LC-2-ad to LU99A, the relative viability rises from 0.595 to 0.804.

Compared with ChaGo-K-1, NCI-H2170 is lower in relative viability: 0.483 for the first, 0.401 for the second.

Compared with NCI-H3122, HCC-78 is higher in relative viability: 0.359 for the first, 0.689 for the second.

Going from SW 900 to LXF-289, the relative viability falls from 0.573 to 0.528.

Going from BEN to HCC-15, the relative viability rises from 0.254 to 0.478.

First: HCC-827
Second: NCI-H441
The relative viability of the first is lower: 0.379 for the first, 0.777 for the second.

Compared with LOU-NH91, NCI-H2023 is lower in relative viability: 0.702 for the first, 0.422 for the second.

First: A-427
Second: NCI-H460
The relative viability of the first is lower: 0.325 for the first, 0.474 for the second.

Going from NCI-H727 to NCI-H1755, the relative viability rises from 0.393 to 0.589.

Compared with NCI-H520, NCI-H2405 is lower in relative viability: 0.536 for the first, 0.367 for the second.

Going from SW 1573 to NCI-H1395, the relative viability rises from 0.392 to 0.45.

Going from 201T to NCI-H1975, the relative viability falls from 0.415 to 0.403.

Going from HOP-62 to NCI-H2347, the relative viability falls from 0.65 to 0.389.

Cell Line NCI-H1355 has a relative viability of 0.439.

Same assay, conditions: first compound 0.3162 µM

Compared with NCI-H647, LK-2 is lower in relative viability: 0.619 for the first, 0.339 for the second.

First: NCI-H2126
Second: NCI-H2342
The relative viability of the first is lower: 0.47 for the first, 0.495 for the second.

Compared with SK-MES-1, HARA is lower in relative viability: 0.673 for the first, 0.373 for the second.

Compared with COR-L23, COR-L 105 is lower in relative viability: 0.508 for the first, 0.369 for the second.

Compared with LC-2-ad, LU99A is higher in relative viability: 0.541 for the first, 0.942 for the second.

First: ChaGo-K-1
Second: NCI-H3122
The relative viability of the first is higher: 0.542 for the first, 0.361 for the second.

First: HCC-78
Second: SW 900
The relative viability of the first is higher: 0.533 for the first, 0.474 for the second.

First: LXF-289
Second: BEN
The relative viability of the first is higher: 0.504 for the first, 0.26 for the second.

Going from HCC-15 to HCC-827, the relative viability falls from 0.479 to 0.166.

Compared with NCI-H441, LOU-NH91 is lower in relative viability: 0.828 for the first, 0.615 for the second.

Going from NCI-H2023 to A-427, the relative viability falls from 0.444 to 0.304.

Going from NCI-H460 to NCI-H727, the relative viability rises from 0.563 to 0.584.

First: NCI-H1755
Second: NCI-H520
The relative viability of the first is higher: 0.666 for the first, 0.547 for the second.

Going from NCI-H2405 to SW 1573, the relative viability falls from 0.473 to 0.263.

Compared with NCI-H1395, 201T is higher in relative viability: 0.437 for the first, 0.451 for the second.

Going from NCI-H1975 to HOP-62, the relative viability rises from 0.357 to 0.821.

Going from NCI-H2347 to NCI-H1355, the relative viability rises from 0.377 to 0.436.

Compound: CC1(COc2ccc3c(c2)ncn3-c2ccc3cccc(N4CCC(N)CC4)c3n2)COC1 [Crenolanib] + N=C(N)NC(=N)NCCc1ccccc1 [Phenformin] (partner 250 µM)
Experiment: as above
Settings: first compound 0.01 µM
How it was run: as §1

First: NCI-H647
Second: LK-2
The relative viability of the first is higher: 0.546 for the first, 0.472 for the second.

Compared with NCI-H2126, NCI-H2342 is higher in relative viability: 0.533 for the first, 0.724 for the second.

First: SK-MES-1
Second: HARA
The relative viability of the first is higher: 0.655 for the first, 0.471 for the second.

Compared with COR-L23, COR-L 105 is higher in relative viability: 0.444 for the first, 0.625 for the second.

— the supplement of paper PMC10307832
